{"source": "paper PMC9138505", "about": "“Small Molecule 20S Proteasome Enhancer Regulates MYC Protein Stability and Exhibits Antitumor Activity in Multiple Myeloma” (Biomedicines, 2022)", "system": "RPMI-8226 cells", "test": "Gene expression profiling, NanoString nCounter PanCancer Pathways Panel, ROSALIND analysis", "assay_type": "cell-based, human", "details": "RPMI-8226, TCH-165 samples 1-3", "procedure": "RPMI-8226 cells were treated with vehicle or TCH-165 (10 μM) for 4 h. Total RNA was obtained using the mirVana miRNA Isolation Kit, with phenol (Thermofisher Scientific; AM1560; Waltham, MA, USA). Total RNA was quantified by Qubit (Thermofisher Scientific; Q32855; Waltham, MA, USA). and gene expression was evaluated against the nCounter® PanCancer Pathways Panel^TM according to the standard NanoString protocol.\nData were analyzed by ROSALIND® [36] with a hyperscale architecture developed by ROSALIND, Inc. (San Diego, CA, USA). Normalization, fold changes and p-values were calculated using criteria provided by NanoString. ROSALIND follows the nCounter® Advanced Analysis protocol of dividing counts within a lane by the geometric mean of the normalizer probes from the same lane. Housekeeping probes to be used for normalization are selected based on the geNorm algorithm, as implemented in the NormqPCR R library. Fold changes and p-values are calculated using the fast method as described in the nCounter Advanced Analysis 2.0 User Manual. The p-value adjustment is performed using the Benjamini–Hochberg method of estimating false discovery rates (FDR). Clustering of genes for the final heatmap of differentially expressed genes was done using the PAM (Partitioning Around Medoids) method using the fpc R library. Hypergeometric distribution was used to analyze the enrichment of pathways, gene ontology, domain structure and other ontologies. The topGO R library was used to determine local similarities and dependencies between GO terms in order to perform Elim pruning correction. Several database sources were referenced for enrichment analysis, including Interpro [40], NCBI [41], MSigDB [42, 43], REACTOME [44], WikiPathways. Enrichment was calculated relative to a set of background genes relevant to the experiment.", "note": "Where “and” joins values, the source holds several entries; their conditions need not be identical. Identical values can stand only once.", "data": [{"smiles": "CCOC(=O)[C@]1(c2ccccc2)N=C(c2ccc(OC)cc2)N(Cc2ccccc2)[C@@H]1c1ccc(NCc2ccccc2)cc1", "note": "[TCH-165]", "values": [{"measurement": "FGF2 normalized gene expression", "result": "5.208 and 4.324 and 4.613"}, {"measurement": "FGF3 normalized gene expression", "result": "4.401 and 4.524 and 4.693"}, {"measurement": "FGF4 normalized gene expression", "result": "5.044 and 4.927 and 4.613"}, {"measurement": "FGF5 normalized gene expression", "result": "2.723 and 2.569 and 3.0682"}, {"measurement": "FGF6 normalized gene expression", "result": "3.86 and 3.891 and 3.184"}, {"measurement": "FGF7 normalized gene expression", "result": "4.86 and 4.996 and 4.653"}, {"measurement": "FGF8 normalized gene expression", "result": "4.723 and 3.569 and 3.805"}, {"measurement": "FGF9 normalized gene expression", "result": "7.044 and 7.045 and 7.083"}, {"measurement": "FGF10 normalized gene expression", "result": "5.308 and 4.614 and 4.975"}, {"measurement": "FGF11 normalized gene expression", "result": "5.53 and 5.154 and 4.975"}, {"measurement": "FGF12 normalized gene expression", "result": "3.86 and 4.7789 and 4.769"}, {"measurement": "FGF13 normalized gene expression", "result": "8.993 and 9.004 and 8.947"}, {"measurement": "FGF14 normalized gene expression", "result": "4.86 and 4.891 and 4.769"}, {"measurement": "FGF16 normalized gene expression", "result": "4.793 and 4.996 and 4.731"}, {"measurement": "FGF17 normalized gene expression", "result": "2.723 and 3.154 and 3.653"}, {"measurement": "FGF18 normalized gene expression", "result": "4.101 and 2.3768 and 3.39"}, {"measurement": "FGF19 normalized gene expression", "result": "3.86 and 4.029 and 4.1271"}, {"measurement": "FGF20 normalized gene expression", "result": "4.571 and 4.817 and 4.876"}, {"measurement": "FGF21 normalized gene expression", "result": "5.955 and 5.636 and 5.712"}, {"measurement": "FGF22 normalized gene expression", "result": "5.827 and 5.569 and 5.098"}, {"measurement": "FGF23 normalized gene expression", "result": "5.208 and 5.124 and 5.341"}, {"measurement": "FGFR1 normalized gene expression", "result": "4.488 and 4.324 and 4.528"}, {"measurement": "FGFR2 normalized gene expression", "result": "6.015 and 5.836 and 5.461"}, {"measurement": "FGFR3 normalized gene expression", "result": "5.488 and 4.614 and 4.9095"}, {"measurement": "FGFR4 normalized gene expression", "result": "4.401 and 3.891 and 4.1271"}, {"measurement": "FIGF normalized gene expression", "result": "4.101 and 3.817 and 2.943"}, {"measurement": "FLNA normalized gene expression", "result": "9.475 and 9.497 and 9.54"}, {"measurement": "FLNC normalized gene expression", "result": "5.924 and 5.979 and 5.528"}, {"measurement": "FLT1 normalized gene expression", "result": "3.401 and 4.029 and 3.653"}, {"measurement": "FLT3 normalized gene expression", "result": "3.401 and 2.739 and 3.0682"}, {"measurement": "FN1 normalized gene expression", "result": "13.4955 and 13.457 and 13.4134"}, {"measurement": "FOS normalized gene expression", "result": "7.234 and 7.603 and 7.613"}, {"measurement": "FOSL1 normalized gene expression", "result": "5.892 and 5.759 and 5.712"}, {"measurement": "FOXL2 normalized gene expression", "result": "4.924 and 4.569 and 4.528"}, {"measurement": "FOXO4 normalized gene expression", "result": "6.986 and 7.124 and 6.787"}, {"measurement": "FST normalized gene expression", "result": "5.308 and 5.093 and 5.184"}, {"measurement": "FUBP1 normalized gene expression", "result": "10.9203 and 10.8641 and 10.8501"}, {"measurement": "FUT8 normalized gene expression", "result": "8.45 and 8.328 and 8.338"}, {"measurement": "FZD2 normalized gene expression", "result": "4.571 and 4.817 and 5.211"}, {"measurement": "FZD3 normalized gene expression", "result": "7.195 and 7.427 and 7.378"}, {"measurement": "FZD7 normalized gene expression", "result": "4.986 and 4.7789 and 4.805"}, {"measurement": "FZD8 normalized gene expression", "result": "4.401 and 3.569 and 4.1271"}, {"measurement": "FZD9 normalized gene expression", "result": "5.208 and 4.029 and 4.341"}, {"measurement": "FZD10 normalized gene expression", "result": "4.86 and 3.962 and 4.437"}, {"measurement": "GADD45A normalized gene expression", "result": "9.132 and 9.301 and 9.248"}, {"measurement": "GADD45B normalized gene expression", "result": "7.884 and 7.9093 and 7.914"}, {"measurement": "GADD45G normalized gene expression", "result": "4.101 and 4.569 and 4.693"}, {"measurement": "GAS1 normalized gene expression", "result": "5.259 and 4.029 and 4.653"}, {"measurement": "GATA1 normalized gene expression", "result": "5.156 and 4.476 and 4.437"}, {"measurement": "GATA2 normalized gene expression", "result": "4.924 and 4.476 and 4.0068"}, {"measurement": "GATA3 normalized gene expression", "result": "2.986 and 4.029 and 4.1271"}, {"measurement": "GHR normalized gene expression", "result": "4.208 and 4.657 and 4.876"}, {"measurement": "GLI1 normalized gene expression", "result": "4.793 and 4.996 and 5.1271"}, {"measurement": "GLI3 normalized gene expression", "result": "7.234 and 6.709 and 6.884"}, {"measurement": "GNA11 normalized gene expression", "result": "6.86 and 6.739 and 6.602"}, {"measurement": "GNAQ normalized gene expression", "result": "4.86 and 5.324 and 4.653"}, {"measurement": "GNAS normalized gene expression", "result": "10.7886 and 10.9336 and 10.8358"}, {"measurement": "GNG4 normalized gene expression", "result": "4.208 and 4.569 and 4.9095"}, {"measurement": "GNG7 normalized gene expression", "result": "5.488 and 5.452 and 4.975"}, {"measurement": "GNGT1 normalized gene expression", "result": "4.86 and 4.699 and 4.341"}, {"measurement": "GPC4 normalized gene expression", "result": "4.986 and 4.324 and 4.238"}, {"measurement": "GRB2 normalized gene expression", "result": "11.2288 and 11.2361 and 11.1936"}, {"measurement": "GRIA3 normalized gene expression", "result": "5.101 and 4.029 and 4.39"}, {"measurement": "GRIN1 normalized gene expression", "result": "6.182 and 5.836 and 5.975"}, {"measurement": "GRIN2A normalized gene expression", "result": "5.955 and 5.678 and 5.437"}, {"measurement": "GRIN2B normalized gene expression", "result": "3.401 and 3.476 and 2.943"}, {"measurement": "GSK3B normalized gene expression", "result": "8.384 and 8.242 and 8.36"}, {"measurement": "GTF2H3 normalized gene expression", "result": "9.358 and 9.284 and 9.271"}, {"measurement": "GZMB normalized gene expression", "result": "4.649 and 4.029 and 4.5707"}, {"measurement": "H2AFX normalized gene expression", "result": "9.249 and 8.96 and 9.049"}, {"measurement": "H3F3A normalized gene expression", "result": "13.5139 and 13.5375 and 13.5217"}, {"measurement": "HDAC1 normalized gene expression", "result": "9.665 and 9.611 and 9.679"}, {"measurement": "HDAC2 normalized gene expression", "result": "11.0236 and 10.9286 and 10.9442"}, {"measurement": "HDAC4 normalized gene expression", "result": "6.986 and 6.798 and 6.778"}, {"measurement": "HDAC5 normalized gene expression", "result": "8.03 and 8.069 and 8.049"}, {"measurement": "HDAC6 normalized gene expression", "result": "7.658 and 7.699 and 7.643"}, {"measurement": "HELLS normalized gene expression", "result": "9.578 and 9.451 and 9.503"}, {"measurement": "HES1 normalized gene expression", "result": "4.924 and 4.855 and 4.613"}, {"measurement": "HGF normalized gene expression", "result": "8.129 and 8.033 and 8.145"}, {"measurement": "HHEX normalized gene expression", "result": "5.986 and 6.012 and 5.943"}, {"measurement": "HIST1H3B normalized gene expression", "result": "15.271 and 14.9487 and 14.86"}, {"measurement": "HIST1H3G normalized gene expression", "result": "14.1552 and 13.7784 and 13.7341"}, {"measurement": "HIST1H3H normalized gene expression", "result": "15.3267 and 14.9451 and 14.9056"}, {"measurement": "HMGA1 normalized gene expression", "result": "10.7304 and 10.6516 and 10.6817"}, {"measurement": "HMGA2 normalized gene expression", "result": "4.86 and 4.657 and 4.0068"}, {"measurement": "HNF1A normalized gene expression", "result": "5.53 and 4.962 and 4.769"}, {"measurement": "HOXA9 normalized gene expression", "result": "5.355 and 5.242 and 5.291"}, {"measurement": "HOXA10 normalized gene expression", "result": "5.61 and 5.592 and 5.437"}, {"measurement": "HOXA11 normalized gene expression", "result": "4.986 and 5.093 and 5.414"}, {"measurement": "HPGD normalized gene expression", "result": "4.208 and 4.3768 and 5.0068"}]}]}
